Test results as given in ChEMBL document CHEMBL2406981, “Novel pyrazoline amidoxime and their 1,2,4-oxadiazole analogues: synthesis and pharmacological screening” (Bioorg Med Chem Lett, 2013).
In brackets after ≈: the same amount, converted by molar mass.

Experiments:
Type in all cases: functional
Shigella flexneri [1] = test: Antimicrobial activity against Shigella flexneri MTCC 1457 at 50 ug/ml after 24 hrs by agar disc diffusion method; details: MTCC 1457, 24 h, read-out: DIZ
Escherichia coli [2] = test: Antimicrobial activity against Escherichia coli MTCC 724 at 50 ug/ml after 24 hrs by agar disc diffusion method; details: MTCC 724, 24 h, read-out: DIZ
Aspergillus niger [3] = test: Antimicrobial activity against Aspergillus niger MTCC 281
Staphylococcus aureus [4] = test: Antimicrobial activity against Staphylococcus aureus MTCC 96 at 50 ug/ml after 24 hrs by agar disc diffusion method; details: MTCC 96, 24 h, read-out: DIZ
Bacillus cereus [5] = test: Antimicrobial activity against Bacillus cereus MTCC 8372 at 100 ug/ml after 24 hrs by agar disc diffusion method; details: MTCC 8372, 24 h, read-out: DIZ
Aspergillus flavus [6] = test: Antimicrobial activity against Aspergillus flavus MTCC 873 at 100 ug/ml after 24 hrs by agar disc diffusion method; details: MTCC 873, 24 h, read-out: DIZ
Aspergillus niger [7] = test: Antimicrobial activity against Aspergillus niger MTCC 281 at 50 ug/ml after 24 hrs by agar disc diffusion method; details: MTCC 281, 24 h, read-out: DIZ
[8] = Antioxidant activity against ferric chloride-induced lipid peroxidation using egg lecithin at 50 ug/ml after 1 hr
Aspergillus flavus [9] = test: Antimicrobial activity against Aspergillus flavus MTCC 873
Escherichia coli [10] = test: Antimicrobial activity against Escherichia coli MTCC 724 at 100 ug/ml after 24 hrs by agar disc diffusion method; details: MTCC 724, 24 h, read-out: DIZ
Klebsiella pneumoniae [11] = test: Antimicrobial activity against Klebsiella pneumoniae MTCC 3384
Bacillus cereus [12] = test: Antimicrobial activity against Bacillus cereus MTCC 8372
[13] = test system: Radical scavenging activity; test: Antioxidant activity assessed as DPPH free radical scavenging activity at 10 ug/ml after 20 mins
Bacillus cereus [14] = test: Antimicrobial activity against Bacillus cereus MTCC 8372 at 50 ug/ml after 24 hrs by agar disc diffusion method; details: MTCC 8372, 24 h, read-out: DIZ
[15] = Antioxidant activity assessed as reducing power of ferric ion at 50 ug/ml after 20 mins; design: scale not given: the % may be the effect or the level left
[16] = Antioxidant activity against ferric chloride-induced lipid peroxidation using egg lecithin at 10 ug/ml after 1 hr
[17] = Antiinflammatory activity against heat-induced albumin denaturation at […] preincubated for 15 mins before heat induction by UV-vis spectrophotometer analysis
Klebsiella pneumoniae [18] = test: Antimicrobial activity against Klebsiella pneumoniae MTCC 3384 at 100 ug/ml after 24 hrs by agar disc diffusion method; details: MTCC 3384, 24 h, read-out: DIZ
Escherichia coli [19] = test: Antimicrobial activity against Escherichia coli MTCC 724
Aspergillus niger [20] = test: Antimicrobial activity against Aspergillus niger MTCC 281 at 100 ug/ml after 24 hrs by agar disc diffusion method; details: MTCC 281, 24 h, read-out: DIZ
[21] = Antioxidant activity assessed as reducing power of ferric ion at 10 ug/ml after 20 mins; design: scale not given: the % may be the effect or the level left
[22] = test system: Radical scavenging activity; test: Antioxidant activity assessed as DPPH free radical scavenging activity at 100 ug/ml after 20 mins
Staphylococcus aureus [23] = test: Antimicrobial activity against Staphylococcus aureus MTCC 96 at 100 ug/ml after 24 hrs by agar disc diffusion method; details: MTCC 96, 24 h, read-out: DIZ
[24] = Antioxidant activity against ferric chloride-induced lipid peroxidation using egg lecithin at 100 ug/ml after 1 hr
Klebsiella pneumoniae [25] = test: Antimicrobial activity against Klebsiella pneumoniae MTCC 3384 at 50 ug/ml after 24 hrs by agar disc diffusion method; details: MTCC 3384, 24 h, read-out: DIZ
[26] = test system: Radical scavenging activity; test: Antioxidant activity assessed as DPPH free radical scavenging activity at 50 ug/ml after 20 mins
Shigella flexneri [27] = test: Antimicrobial activity against Shigella flexneri MTCC 1457 at 100 ug/ml after 24 hrs by agar disc diffusion method; details: MTCC 1457, 24 h, read-out: DIZ
Staphylococcus aureus [28] = test: Antimicrobial activity against Staphylococcus aureus MTCC 96
Shigella flexneri [29] = test: Antimicrobial activity against Shigella flexneri MTCC 1457
Aspergillus flavus [30] = test: Antimicrobial activity against Aspergillus flavus MTCC 873 at 50 ug/ml after 24 hrs by agar disc diffusion method; details: MTCC 873, 24 h, read-out: DIZ
[31] = Antioxidant activity assessed as reducing power of ferric ion at 100 ug/ml after 20 mins; design: scale not given: the % may be the effect or the level left

SMILES	zone of inhibition at 50 µg/mL (Shigella flexneri [1])	zone of inhibition at 50 µg/mL (Escherichia coli [2])	MIC (Aspergillus niger [3])	zone of inhibition at 50 µg/mL (Staphylococcus aureus [4])	zone of inhibition at 100 µg/mL (Bacillus cereus [5])	zone of inhibition at 100 µg/mL (Aspergillus flavus [6])	zone of inhibition at 50 µg/mL (Aspergillus niger [7])	inhibition [8]	MIC (Aspergillus flavus [9])	zone of inhibition at 100 µg/mL (Escherichia coli [10])	MIC (Klebsiella pneumoniae [11])	MIC (Bacillus cereus [12])	Activity [13]	zone of inhibition at 50 µg/mL (Bacillus cereus [14])	Activity [15]	inhibition [16]	inhibition [17]	zone of inhibition at 100 µg/mL (Klebsiella pneumoniae [18])	MIC (Escherichia coli [19])	zone of inhibition at 100 µg/mL (Aspergillus niger [20])	further results
COc1ccc(C2=NN(c3ccccc3)C(/C(N)=N/O)C2)cc1 (stereo not drawn)	6 mm	3 mm	15 µg/mL (≈ 48.3 µM)	2 mm	16 mm	10 mm	10 mm	16%	30 µg/mL (≈ 96.7 µM)	8 mm	25 µg/mL (≈ 80.6 µM)	35 µg/mL (≈ 113 µM)	18%	4 mm	22%	10%	23.8%	9 mm	55 µg/mL (≈ 177 µM)	12 mm	Activity [21]: 10%; Activity [22]: 55%; zone of inhibition at 100 µg/mL (Staphylococcus aureus [23]): 12 mm; inhibition [24]: 14%; zone of inhibition at 50 µg/mL (Klebsiella pneumoniae [25]): 6 mm; Activity [26]: 33%; zone of inhibition at 100 µg/mL (Shigella flexneri [27]): 10 mm; MIC (Staphylococcus aureus [28]): 50 µg/mL (≈ 161 µM); MIC (Shigella flexneri [29]): 25 µg/mL (≈ 80.6 µM); zone of inhibition at 50 µg/mL (Aspergillus flavus [30]): 5 mm; Activity [31]: 62%
Clc1ccc(C2=NN(c3ccccc3)C(c3noc(-c4ccccc4)n3)C2)cc1 (stereo not drawn)	6 mm	4 mm	15 µg/mL (≈ 37.4 µM)	3 mm	8 mm	18 mm	9 mm	44%	10 µg/mL (≈ 24.9 µM)	10 mm	25 µg/mL (≈ 62.4 µM)	30 µg/mL (≈ 74.8 µM)	23%	5 mm	26%	31%	60%	8 mm	45 µg/mL (≈ 112 µM)	18 mm	Activity [21]: 13%; Activity [22]: 68%; zone of inhibition at 100 µg/mL (Staphylococcus aureus [23]): 11 mm; inhibition [24]: 71%; zone of inhibition at 50 µg/mL (Klebsiella pneumoniae [25]): 6 mm; Activity [26]: 40%; zone of inhibition at 100 µg/mL (Shigella flexneri [27]): 8 mm; MIC (Staphylococcus aureus [28]): 50 µg/mL (≈ 125 µM); MIC (Shigella flexneri [29]): 25 µg/mL (≈ 62.4 µM); zone of inhibition at 50 µg/mL (Aspergillus flavus [30]): 12 mm; Activity [31]: 62%
Clc1ccc(C2=NN(c3ccccc3)C(c3noc(-c4ccc(Cl)cc4)n3)C2)cc1 (stereo not drawn)	8 mm	8 mm	5 µg/mL (≈ 11.5 µM)	6 mm	12 mm	25 mm	20 mm	58%	10 µg/mL (≈ 23 µM)	10 mm	25 µg/mL (≈ 57.4 µM)	25 µg/mL (≈ 57.4 µM)	29%	6 mm	32%	34%	78.4%	10 mm	20 µg/mL (≈ 45.9 µM)	26 mm	Activity [21]: 16%; Activity [22]: 82%; zone of inhibition at 100 µg/mL (Staphylococcus aureus [23]): 12 mm; inhibition [24]: 83%; zone of inhibition at 50 µg/mL (Klebsiella pneumoniae [25]): 6 mm; Activity [26]: 53%; zone of inhibition at 100 µg/mL (Shigella flexneri [27]): 12 mm; MIC (Staphylococcus aureus [28]): 20 µg/mL (≈ 45.9 µM); MIC (Shigella flexneri [29]): 20 µg/mL (≈ 45.9 µM); zone of inhibition at 50 µg/mL (Aspergillus flavus [30]): 15 mm; Activity [31]: 86%
COc1ccc(-c2nc(C3CC(c4ccc(Cl)cc4)=NN3c3ccccc3)no2)cc1OC (stereo not drawn)	10 mm	8 mm	10 µg/mL (≈ 21.7 µM)	6 mm	14 mm	21 mm	14 mm	52%	10 µg/mL (≈ 21.7 µM)	12 mm	15 µg/mL (≈ 32.5 µM)	20 µg/mL (≈ 43.4 µM)	30%	8 mm	29%	30%	53.5%	11 mm	20 µg/mL (≈ 43.4 µM)	27 mm	Activity [21]: 14%; Activity [22]: 86%; zone of inhibition at 100 µg/mL (Staphylococcus aureus [23]): 12 mm; inhibition [24]: 73%; zone of inhibition at 50 µg/mL (Klebsiella pneumoniae [25]): 9 mm; Activity [26]: 59%; zone of inhibition at 100 µg/mL (Shigella flexneri [27]): 16 mm; MIC (Staphylococcus aureus [28]): 25 µg/mL (≈ 54.2 µM); MIC (Shigella flexneri [29]): 15 µg/mL (≈ 32.5 µM); zone of inhibition at 50 µg/mL (Aspergillus flavus [30]): 14 mm; Activity [31]: 75%
COc1ccc(-c2nc(C3CC(c4ccc(O)cc4)=NN3c3ccccc3)no2)cc1OC (stereo not drawn)	10 mm	7 mm	5 µg/mL (≈ 11.3 µM)	8 mm	16 mm	20 mm	18 mm	45%	10 µg/mL (≈ 22.6 µM)	12 mm	25 µg/mL (≈ 56.5 µM)	15 µg/mL (≈ 33.9 µM)	31%	10 mm	24%	32%	58.5%	12 mm	25 µg/mL (≈ 56.5 µM)	26 mm	Activity [21]: 18%; Activity [22]: 76%; zone of inhibition at 100 µg/mL (Staphylococcus aureus [23]): 18 mm; inhibition [24]: 73%; zone of inhibition at 50 µg/mL (Klebsiella pneumoniae [25]): 8 mm; Activity [26]: 53%; zone of inhibition at 100 µg/mL (Shigella flexneri [27]): 18 mm; MIC (Staphylococcus aureus [28]): 20 µg/mL (≈ 45.2 µM); MIC (Shigella flexneri [29]): 15 µg/mL (≈ 33.9 µM); zone of inhibition at 50 µg/mL (Aspergillus flavus [30]): 14 mm; Activity [31]: 75%
Oc1ccc(C2=NN(c3ccccc3)C(c3noc(-c4ccc(O)cc4)n3)C2)cc1 (stereo not drawn)	14 mm	12 mm	10 µg/mL (≈ 25.1 µM)	8 mm	10 mm	20 mm	14 mm	58%	10 µg/mL (≈ 25.1 µM)	20 mm	15 µg/mL (≈ 37.6 µM)	25 µg/mL (≈ 62.7 µM)	31%	6 mm	30%	34%	69.7%	16 mm	10 µg/mL (≈ 25.1 µM)	22 mm	Activity [21]: 12%; Activity [22]: 86%; zone of inhibition at 100 µg/mL (Staphylococcus aureus [23]): 12 mm; inhibition [24]: 78%; zone of inhibition at 50 µg/mL (Klebsiella pneumoniae [25]): 10 mm; Activity [26]: 47%; zone of inhibition at 100 µg/mL (Shigella flexneri [27]): 22 mm; MIC (Staphylococcus aureus [28]): 20 µg/mL (≈ 50.2 µM); MIC (Shigella flexneri [29]): 10 µg/mL (≈ 25.1 µM); zone of inhibition at 50 µg/mL (Aspergillus flavus [30]): 12 mm; Activity [31]: 76%
COc1ccc(-c2nc(C3CC(c4ccccc4)=NN3c3ccccc3)no2)cc1OC (stereo not drawn)	7 mm	8 mm	10 µg/mL (≈ 23.4 µM)	8 mm	14 mm	14 mm	12 mm	52%	10 µg/mL (≈ 23.4 µM)	12 mm	20 µg/mL (≈ 46.9 µM)	20 µg/mL (≈ 46.9 µM)	26%	8 mm	29%	14%	27.1%	14 mm	20 µg/mL (≈ 46.9 µM)	18 mm	Activity [21]: 12%; Activity [22]: 66%; zone of inhibition at 100 µg/mL (Staphylococcus aureus [23]): 12 mm; inhibition [24]: 71%; zone of inhibition at 50 µg/mL (Klebsiella pneumoniae [25]): 8 mm; Activity [26]: 56%; zone of inhibition at 100 µg/mL (Shigella flexneri [27]): 10 mm; MIC (Staphylococcus aureus [28]): 20 µg/mL (≈ 46.9 µM); MIC (Shigella flexneri [29]): 25 µg/mL (≈ 58.6 µM); zone of inhibition at 50 µg/mL (Aspergillus flavus [30]): 10 mm; Activity [31]: 68%
c1ccc(C2=NN(c3ccccc3)C(c3noc(-c4ccccc4)n3)C2)cc1 (stereo not drawn)	4 mm	3 mm	15 µg/mL (≈ 40.9 µM)	2 mm	8 mm	12 mm	10 mm	40%	15 µg/mL (≈ 40.9 µM)	8 mm	30 µg/mL (≈ 81.9 µM)	30 µg/mL (≈ 81.9 µM)	18%	4 mm	16%	21%	23.3%	6 mm	50 µg/mL (≈ 136 µM)	14 mm	Activity [21]: 6%; Activity [22]: 39%; zone of inhibition at 100 µg/mL (Staphylococcus aureus [23]): 8 mm; inhibition [24]: 57%; zone of inhibition at 50 µg/mL (Klebsiella pneumoniae [25]): 4 mm; Activity [26]: 28%; zone of inhibition at 100 µg/mL (Shigella flexneri [27]): 8 mm; MIC (Staphylococcus aureus [28]): 50 µg/mL (≈ 136 µM); MIC (Shigella flexneri [29]): 20 µg/mL (≈ 54.6 µM); zone of inhibition at 50 µg/mL (Aspergillus flavus [30]): 9 mm; Activity [31]: 58%
